Values joined by “and” are separate entries in the source; they are usually repeats but may differ in a detail not shown here. Equal values may be shown once.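 In this assay, cells in 96-well plates receive the compound at five concentrations for 48 hours. Endpoints are linearly interpolated between the surrounding concentrations. GI50 is the concentration that inhibits growth by half. TGI denotes the concentration required for complete inhibition of growth.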
Columns and labels:
Test in all cases: NCI tumour cell line growth inhibition, 48 h
[1] = tested on: MDA-MB-468 breast
[2] = tested on: 786-0 renal
[3] = tested on: A498 renal
[4] = tested on: A549 NSCLC
[5] = tested on: ACHN renal
[6] = tested on: CAKI-1 renal
[7] = tested on: CCRF-CEM leukemia
[8] = tested on: COLO 205 colon
[9] = tested on: DU-145 prostate
[10] = tested on: EKVX NSCLC
[11] = tested on: HCC-2998 colon
[12] = tested on: HCT-15 colon
[13] = tested on: HL-60(TB) leukemia
[14] = tested on: HOP-62 NSCLC
[15] = tested on: HOP-92 NSCLC
[16] = tested on: HT29 colon
[17] = tested on: IGROV1 ovarian
[18] = tested on: K-562 leukemia
[19] = tested on: LOX IMVI melanoma
[20] = tested on: M14 melanoma
[21] = tested on: MALME-3M melanoma
[22] = tested on: MCF7 breast
[23] = tested on: MDA-MB-231 breast
[24] = tested on: MDA-MB-435
[25] = tested on: MOLT-4 leukemia
[26] = tested on: NCI-H226 lung
[27] = tested on: NCI-H23 lung
[28] = tested on: NCI-H460 lung
[29] = tested on: NCI-H522 lung
[30] = tested on: OVCAR-3 ovarian
[31] = tested on: OVCAR-4 ovarian
[32] = tested on: OVCAR-5 ovarian
[33] = tested on: OVCAR-8 ovarian
[34] = tested on: PC-3 prostate
[35] = tested on: RPMI-8226 leukemia
[36] = tested on: RXF 393 renal
[37] = tested on: SF-268 CNS
[38] = tested on: SF-295 CNS
[39] = tested on: SF-539 CNS
[40] = tested on: SK-MEL-2 melanoma
[41] = tested on: SK-MEL-28 melanoma
[42] = tested on: SK-MEL-5 melanoma
[43] = tested on: SK-OV-3 ovarian
[44] = tested on: SN12C renal
[45] = tested on: SNB-19 CNS
[46] = tested on: SNB-75 CNS
[47] = tested on: SR leukemia
[48] = tested on: SW-620 colon
[49] = tested on: T-47D breast
[50] = tested on: TK-10 renal
[51] = tested on: U251 CNS
[52] = tested on: UACC-257 melanoma
[53] = tested on: UACC-62 melanoma
[54] = tested on: UO-31 renal

CC1(C)N=C(N)N=C(N)N1c1cccc(CCCCc2cccc(S(=O)(=O)F)c2)c1
GI50 [1]: 0.748 µM | TGI [1]: 26.4 µM

CC(C)[C@]12O[C@H]1[C@@H]1O[C@]13[C@]1(O[C@H]1C[C@H]1C4=C(CC[C@@]13C)C(=O)OC4)[C@@H]2O
GI50 [1]: 0.0176 µM | TGI [1]: 0.0385 µM

FC(F)(F)Oc1cccc(-c2cnc3ccc(-c4ccncc4)nn23)c1
GI50 [1]: 0.59 µM | TGI [1]: 3.77 µM

COc1ccc2oc(=O)cc(C(c3ccc[nH]3)c3ccc[nH]3)c2c1
GI50 [1]: 0.344 µM | TGI [1]: 3.34 µM

Nc1ccc2c(c1)C(=O)C(=O)c1c-2nc2ccccn12
GI50 [1]: 1.53 µM | TGI [1]: 3.11 µM

CCS(=O)(=O)N1CCC(C(C)n2c(C)c(C(=O)NCc3c(OC)cc(C)[nH]c3=O)c3ccccc32)CC1 (stereo not given)
GI50 [1]: 92 µM | TGI [1]: > 100 µM

N#Cc1c(-c2ccccc2)nc(SCC2CO2)nc1N1CCOCC1 (stereo not given)
GI50 [1]: 4.15 µM | TGI [1]: > 68.4 µM

Clc1ccc(CSC(Cn2ccnc2)c2ccc(Cl)cc2Cl)cc1 (stereo not given)
GI50 [1]: 1.39 µM | TGI [1]: 3.37 µM

Cc1cccc(NC(=O)CCc2ccc(N3C(N)=NC(N)=NC3(C)C)cc2)c1
GI50 [1]: 0.692 µM | TGI [1]: > 51.4 µM

Nc1c(C(=O)c2cccc(CCCN3CCOCC3)c2)cnn1-c1ccc(F)cc1
GI50 [1]: > 20.1 µM | TGI [1]: > 25 µM

COc1cc(NS(C)(=O)=O)ccc1Nc1c2ccc([N+](=O)[O-])cc2nc2c(C)cccc12
GI50 [1]: 0.246 µM | TGI [1]: 0.873 µM

Cc1ccc([N+](=O)[O-])cc1NC(=O)Nc1cccc(F)c1
GI50 [1]: 3.6 µM | TGI [1]: 24.7 µM

COc1ccc(CC(C)=C(c2ccc(OCCN3CCCC3)cc2)c2ccc(OCCN3CCCC3)cc2)cc1
GI50 [1]: 0.777 µM | TGI [1]: 3.1 µM

O=C(NC1CCN(Cc2ccccc2)CC1)c1cc(-c2ccncc2)nc2ccc(Cl)cc12
GI50 [1]: 6.82 µM | TGI [1]: 37 µM

F
GI50 [1]: 4500 µM | TGI [1]: > 6870 µM

COc1cc(C(=O)/C=C/c2c(C)n([O-])c3ccc(C)cc3[n+]2=O)cc(OC)c1OC
GI50 [1]: 2.59 µM | TGI [1]: 9.94 µM

C=C1C(=O)O[C@H]2[C@H]1CC/C(CNC(=O)Cc1c[nH]c3ccccc13)=C\CC[C@@]1(C)O[C@@H]21
GI50 [1]: 0.795 µM | TGI [1]: 2.73 µM

CCN(CC)CCOCC[C@H]1CC[C@H]2[C@@H]3[C@H](C)Cc4cc(OS(N)(=O)=O)ccc4[C@H]3CC[C@]12C
GI50 [1]: 0.259 µM | TGI [1]: 1.36 µM

C=C1CC[C@@H]2[C@]3(C)COC(c4cn(-c5ccccc5)nc4-c4cccc([N+](=O)[O-])c4)O[C@@H]3CC[C@@]2(C)[C@@H]1C/C=C1/C(=O)OC[C@H]1O (stereo not given in full)
GI50 [2]: 3.04 µM | TGI [2]: 10.3 µM | GI50 [3]: 18.9 µM | TGI [3]: 45.4 µM | GI50 [4]: 3.62 µM | TGI [4]: > 100 µM | GI50 [5]: 1.89 µM | TGI [5]: 3.62 µM | GI50 [6]: 2.81 µM | TGI [6]: > 100 µM | GI50 [7]: 1.14 µM | TGI [7]: 5.01 µM | GI50 [8]: 2.41 µM | TGI [8]: 5.06 µM | GI50 [9]: 4.11 µM | TGI [9]: 24.3 µM | GI50 [10]: 2.75 µM | TGI [10]: 7.98 µM | GI50 [11]: 1.92 µM | TGI [11]: 3.53 µM | GI50 [12]: 1.74 µM | TGI [12]: 3.58 µM | GI50 [13]: 1.73 µM | TGI [13]: > 100 µM | GI50 [14]: 3.15 µM | TGI [14]: 12.4 µM | GI50 [15]: 1.86 µM | TGI [15]: 3.64 µM | GI50 [16]: 1.82 µM | TGI [16]: 4.26 µM | GI50 [17]: 2.08 µM | TGI [17]: 4.27 µM | GI50 [18]: 2.16 µM | TGI [18]: > 100 µM | GI50 [19]: 1.72 µM | TGI [19]: 3.34 µM | GI50 [20]: 2.08 µM | TGI [20]: 4.52 µM | GI50 [21]: 1.78 µM | TGI [21]: 3.55 µM | GI50 [22]: 2.64 µM | TGI [22]: > 100 µM | GI50 [23]: 1.84 µM | TGI [23]: 3.44 µM | GI50 [24]: 3.03 µM | TGI [24]: 18.3 µM | GI50 [1]: 1.76 µM | TGI [1]: 3.52 µM | GI50 [25]: 2.87 µM | TGI [25]: > 100 µM | GI50 [26]: 2.38 µM | TGI [26]: 6.59 µM | GI50 [27]: 1.83 µM | TGI [27]: 3.55 µM | GI50 [28]: 2.27 µM | TGI [28]: 4.8 µM | GI50 [29]: 1.75 µM | TGI [29]: 3.41 µM | GI50 [30]: 1.87 µM | TGI [30]: 3.75 µM | GI50 [31]: 4.05 µM | TGI [31]: > 100 µM | GI50 [32]: 2.06 µM | TGI [32]: 5.05 µM | GI50 [33]: 1.9 µM | TGI [33]: 5.04 µM | GI50 [34]: 2.75 µM | TGI [34]: 9.04 µM | GI50 [35]: 2.45 µM | TGI [35]: > 100 µM | GI50 [36]: 1.62 µM | TGI [36]: 3.2 µM | GI50 [37]: 7.65 µM | TGI [37]: > 100 µM | GI50 [38]: 1.68 µM | TGI [38]: 3.19 µM | GI50 [39]: 1.74 µM | TGI [39]: 3.18 µM | GI50 [40]: 1.78 µM | TGI [40]: 3.51 µM | GI50 [41]: 2.04 µM | TGI [41]: 4.06 µM | GI50 [42]: 1.63 µM | TGI [42]: 3 µM | GI50 [43]: 29.8 µM | TGI [43]: > 100 µM | GI50 [44]: 2.93 µM | TGI [44]: 10.3 µM | GI50 [45]: 3.65 µM | TGI [45]: 15 µM | GI50 [46]: 7.34 µM | TGI [46]: 50.1 µM | GI50 [47]: 3.46 µM | TGI [47]: > 100 µM | GI50 [48]: 2.21 µM | TGI [48]: 5.13 µM | GI50 [49]: 1.76 µM | TGI [49]: 5.02 µM | GI50 [50]: 2.22 µM | TGI [50]: 5.82 µM | GI50 [51]: 1.74 µM | TGI [51]: 3.35 µM | GI50 [52]: 1.8 µM | TGI [52]: 3.68 µM | GI50 [53]: 1.69 µM | TGI [53]: 3.46 µM | GI50 [54]: 1.82 µM | TGI [54]: 5.46 µM

CC12CCC3C(CCC4Cc5[nH]c6ccccc6c5CC43C)C1CCC2O (stereo not given)
GI50 [1]: 2.78 µM | TGI [1]: > 100 µM

O=C(NNc1nc2cc(F)ccc2n2c(CN3CCCC3)ccc12)c1cnccn1
GI50 [1]: 1.6 µM | TGI [1]: 6.9 µM

Nc1cc(-c2c[nH]c3ccc(F)cc23)nc2cc(-c3c[nH]c4ccc(F)cc34)nn12
GI50 [1]: 2.01 µM | TGI [1]: 3.84 µM

OC(c1cccc(-n2ccc(C(F)(F)F)n2)c1)c1cnccc1NC1CCCCCC1 (stereo not given)
GI50 [1]: 1.64 µM | TGI [1]: 3.28 µM

CCNC(=O)[C@@H]1CCCN2C(=O)CC[C@H](NC(=O)[C@H](Cc3ccc(OP(=O)(O)O)cc3)NC(C)=O)C(=O)N12
GI50 [1]: > 25 µM | TGI [1]: > 25 µM

N#Cc1cnc2ccc(-c3cnc(N)nc3)cc2c1N1CCc2cc(F)c(Cl)cc21
GI50 [1]: 0.38 µM | TGI [1]: 2.04 µM

CCN1CCN(Cc2ccc(-c3cc4c(N[C@H](C)c5ccccc5)ncnc4[nH]3)cc2)CC1
GI50 [1]: 0.0202 µM and 0.0419 µM | TGI [1]: 0.286 µM and 0.481 µM

C[C@@H]1COCCN1c1cc(C2([S@](C)(=N)=O)CC2)nc(-c2ccnc3[nH]ccc23)n1
GI50 [1]: 3.12 µM and 4.14 µM | TGI [1]: 27.2 µM and > 10 µM

CN(C)CCOc1ccc(-c2nc(-c3ccc4c(c3)CC/C4=N\O)c(-c3ccncc3)[nH]2)cc1
GI50 [1]: 3.63 µM and 2.74 µM | TGI [1]: 7.37 µM and 24.4 µM

Cn1cc(-c2ccc3c(Nc4cccc(NC(=O)Nc5cccc(F)c5)c4)ncnc3c2)cn1
GI50 [1]: 0.107 µM | TGI [1]: 1.64 µM

COC(=O)CCC(=O)C(=O)OC
GI50 [1]: 90800 µM | TGI [1]: > 100000 µM

COc1ccc(C2CC(c3cc(OC)c(OC)c(OC)c3)=NO2)cc1OCCCCOc1cc2c(cc1OC)C(=O)N1CCC[C@H]1C=N2 (stereo not given in full)
GI50 [1]: 1.34 µM | TGI [1]: 2.97 µM

Cc1ccc2c(c1)C(C)Cc1c(ncnc1-n1cnc3ccccc31)N2C (stereo not given)
GI50 [1]: 0.262 µM | TGI [1]: 23.2 µM

CCSCC1CC(O)(c2ccccc2)C(c2ccccc2)C(c2ccc(Cl)cc2)O1 (stereo not given)
GI50 [1]: 1.7 µM | TGI [1]: 3.55 µM

CC(=O)N[C@@H](Cc1ccc(OP(=O)(O)O)cc1)C(=O)N[C@H]1CCC(=O)N2CCC[C@@H](C(=O)NCc3ccc(Cl)cc3)N2C1=O
GI50 [1]: > 25 µM | TGI [1]: > 25 µM

COc1ccc2[nH]c(=O)c3c4ccccc4cn3c2c1
GI50 [1]: 0.179 µM | TGI [1]: 1.36 µM

C=CC[n+]1c(/C=C/C=C2\N(C)c3ccccc3C2(C)C)sc2ccc(OC)cc21
GI50 [1]: 0.0297 µM | TGI [1]: 1.05 µM

COc1cc2c(cc1O)CC[C@@H]1[C@@H]2CC[C@]2(C)[C@@H](NCCN(C)C)CC[C@@H]12
GI50 [1]: 0.126 µM | TGI [1]: 0.499 µM
